One assay relates to aromatase. The experiment in a line: in vivo inhibition of aromatase activity: suppression of ovarian estrogen content of PMS-hCG primed female rats. Particulars: Rattus norvegicus, po. How it is done:
Twenty-one-day-old female rats are injected subcutaneously with 10 IU pregnant mare serum gonadotropin (PMS). Two days later the same rats are injected subcutaneously with 30 IU human chorionic gonadrotropin (hCG). On the day following the hCG treatment the rats are injected subcutaneously with either propylene glycol (0.2 ml:p.o.) or with various doses of the test compound. […] Four hours after the injection of androstenedione the rats are killed and their ovaries removed and trimmed free of adhering tissue and stored in pairs at -40° C. To determine the total estrogen content of the ovaries, 1.5 ml of 0.05M aqueous potassium phosphate buffer, pH 7.4, and 0.2 ml of 0.1N aqueous sodium hydroxide are added to the tissues which are then homogenized. The homogenate is extracted with 15 ml of diethyl ether, 5 ml aliquots are radioimmunoassayed with antiserum having 100% cross reactivity with estrone, estradiol and estriol. The results are expressed as ng estrogen/pair of ovaries.

In a further assay the target is T1, thromboxane synthetase (Homo sapiens, UniProt P24557).
T1 construct: crude microsomal preparation of thromboxane synthetase from lysed hyman platelets; from tissue; host or cells: lysed human (printed 'hyman') platelets, crude microsomes
T1 sequence (P24557 1-533): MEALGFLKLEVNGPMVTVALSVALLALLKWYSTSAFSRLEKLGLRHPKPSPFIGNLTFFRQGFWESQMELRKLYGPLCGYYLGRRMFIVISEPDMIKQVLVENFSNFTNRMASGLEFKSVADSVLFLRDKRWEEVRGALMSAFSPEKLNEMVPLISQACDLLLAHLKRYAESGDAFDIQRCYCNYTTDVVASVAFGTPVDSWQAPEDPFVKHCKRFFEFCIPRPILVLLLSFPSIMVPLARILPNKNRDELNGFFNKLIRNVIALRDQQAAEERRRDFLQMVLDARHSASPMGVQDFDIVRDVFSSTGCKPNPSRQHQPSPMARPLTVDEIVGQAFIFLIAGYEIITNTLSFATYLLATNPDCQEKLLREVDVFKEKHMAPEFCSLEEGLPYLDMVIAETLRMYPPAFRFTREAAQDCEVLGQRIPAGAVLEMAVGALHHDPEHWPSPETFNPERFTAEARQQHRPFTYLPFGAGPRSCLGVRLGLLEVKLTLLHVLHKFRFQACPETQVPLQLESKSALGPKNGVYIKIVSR
The experiment in a line: in vitro inhibition of the thromboxane synthetase enzyme (TxB2/PGF2 ratio). Type of assay: biochemical. Particulars: 30 min incubation. How it is done:
Res. Comm. 74, 1432 (1977); the testing procedure is as follows:
^14 C-arachidonic acid is incubated with an enzyme preparation consisting of solubilized and partially purified prostaglandin cyclo-oxygenase from sheep seminal vesicles and a crude microsomal preparation of thromboxane synthetase from lysed hyman platelets. The test compound (dissolved in buffer, or if necessary, in a small amount of ethanol) is added to the incubation medium. At the end of the incubation period (30 minutes), Prostaglandin E2 (PGE2) is reduced to a mixture of Prostaglandin F2 α and F2 β (PGF2 α+β) by addition of sodium borohydride. The radioactive products and excess substrate are extracted into ethyl acetate; the extract is evaporated to dryness; the residue is dissolved in acetone, spotted on thin-layer plates and chromatographed in the solvent system toluene: acetone: glacial acetic acid (100 volumes: 100 volumes: 3 volumes). The radioactive zones are located; those corresponding to Thromboxane B2 (T×B2) and PGF2 α+β are transferred to liquid scintillation vials and counted. The ratio of counts for T×B2 /PGF2 α+β is calculated for each concentration of test compound and IC50 values are determined graphically as the concentration of test compound at which the ratio of T×B2 /PGF2 α+β is reduced to 50% of the control value.

`N#Cc1ccc(-c2cccc3cncn23)cc1` [Example 3, 5-(p-Cyanophenyl)imidazo[1,5-a]pyridine]: the minimal effective dose with aromatase was 0.013 mg/kg.

With `O=C(O)c1ccc(C2CCCc3cncn32)cc1` (stereo not drawn) [Example 9, 5-(p-Carboxyphenyl)-5,6,7,8-tetrahydroimidazo[1,5-a]-pyridine], the half-maximal inhibitory concentration (IC50) at thromboxane synthetase was approximately 900 nM.

Take `CCOC(=O)CC1CCc2cncn2C1c1ccc(C#N)cc1` (stereo not drawn) [Example 33, 5-(4-cyanophenyl)-6-ethoxycarbonylmethyl-5,6,7,8-tetrahydroimidazo[1,5-a]pyridine]: in the assay on aromatase, the minimal effective dose turned out to be 0.346 mg/kg.

Broadly, the minimal effective dose is the lowest level tested that produced the effect sought. Read a low minimal effective dose as greater potency. A word on the IC50: it is the concentration that inhibits the measured activity by half.
